Marks after values point to notes of the source that are not given here. In the oligonucleotide strings, read from the 5' end, every base follows the letter of its sugar. An asterisk marks phosphorothioate; unmarked linkages are phosphodiester. Other units and linkages are bracketed, terminal groups are in braces. A string of capitals states the bases alone. l = locked nucleic acid (LNA); [5mC] = 5-methylcytosine; d = 2'-deoxy (DNA)
Legend:
[1] = system: HCC827R gefitinib resistant cells; assay: Cell proliferation of HCC827R cells under gefitinib (MTT assay); format: cell-based, human; conditions: highest concentration tested 10 μM
Procedure: HCC827 lung adenocarcinoma cells (ATCC CRL-2868) were maintained at 37° C. in a humidified atmosphere of 5% CO2 and 95% air in RPMI medium supplemented with 10% fetal bovine serum. To generate gefitinib resistance, cells were treated with increasing amounts of gefitinib (up to 500 nM) for a period of 3 months.

Mouse HER3 mRNA = assay: HER3 mRNA knockdown in liver of nude mice bearing 15PC3 xenografts, qd x 5 (qRT-PCR); format: in vivo; conditions: i.v.
Procedure: (§1) To evaluate the knockdown efficacy of the HER3 oligomeric compounds in vivo, the female nude mice bearing 15PC3 xenografts developed by subcutaneous injection of 5×10^6 cells/mouse into the right axillary flank, were injected intravenously with the oligomers at various doses and injection schedules (i.e. single dose, qd, q3d, q4d). Scrambled oligomer SEQ ID NO: 236 served as a negative control. 24 hours after the last injection, the mice were euthanized and liver and tumor tissues were collected in RNAlater solution (Ambion). Total RNA was purified from the tissues and the levels of HER3 mRNA were determined by quantitative reverse transcription-real time PCR (qRT-PCR) using the QuantiTect Probe RT-PCR kit (Cat#: 204443; Qiagen). GAPDH mRNA served as an internal control.
(§2) 200 ng of total RNA was used in the PCR reaction. The data analyses were performed by using the ABI-7500 PCR Fast System included software.
(§3) Data in Table 5 are presented as % HER3 mRNA levels relative to saline treated controls in liver and tumor samples after i.v. dosing of animals on 5 consecutive days with oligonucleotides in the doses indicated.

human HER3 mRNA [2] = assay: HER3 mRNA knockdown in 15PC3 xenograft tumor in nude mice, qd x 5 (qRT-PCR); format: in vivo; conditions: 32.4 mg/kg, i.v., relative to saline controls
Procedure: as §1, §2, §3

HIF-1 alpha mRNA = HIF-1 alpha mRNA in 15PC3 xenograft tumor, different dosing cycle; format: in vivo, human; conditions: 32.4 x 4 mg/kg i.v., every third day
Procedure: as §1
(§4) The knockdown efficacy of oligomers was evaluated in vivo in nude mice bearing xenograft tumors derived from 15PC3 cells or A549 cells (NSCLC) or N87 cells (gastric carcinoma) using a similar protocol to the one described above in Example 11. Oligomers were administered by injection every third day in 2-4 doses. Tissues were harvested 3 or 4 days after the last injection.
(§5) Data in Tables 6 and 7 are presented as % HER3 mRNA or HIF-1 alpha mRNA relative to saline treated controls in liver and tumor samples after i.v. dosing of animals with the indicated oligomers.

human EGFR mRNA = assay: Down-regulation of EGFR mRNA in transfected 15PC3 cells, real-time PCR; format: cell-based; conditions: 25 nM
Procedure: (§6) 15PC3: The human prostate cancer cell line 15PC3 was cultured in DMEM (Sigma)+10% fetal bovine serum (FBS)+2 mM Glutamax I+gentamicin (25 μg/ml).
(§7) The cells were treated with oligonucleotides using the cationic liposome formulation LipofectAMINE 2000 (Gibco) as transfection vehicle. Cells were seeded in 6-well cell culture plates (NUNC) and treated when 80-90% confluent. Oligomer concentrations ranged from 1 nM to 25 nM final concentration. Formulation of oligomer-lipid complexes was carried out essentially as described by the manufacturer using serum-free OptiMEM (Gibco) and a final lipid concentration of 5 μg/mL LipofectAMINE 2000. Cells were incubated at 37° C. for 4 hours and treatment was stopped by removal of oligomer-containing culture medium. Cells were washed and serum-containing medium was added. After oligomer treatment, cells were allowed to recover for 20 hours before they were harvested for RNA analysis.
(§8) Total RNA was extracted from cells transfected as described above and using the Qiagen RNeasy kit (Qiagen cat. no. 74104) according to the manufacturer's instructions. First strand synthesis was performed using Reverse Transcriptase reagents from Ambion according to the manufacturer's instructions.
(§9) For each sample 0.5 μg total RNA was adjusted to (10.8 μl) with RNase free H2O and mixed with 2 μl random decamers (50 μM) and 4 μl dNTP mix (2.5 mM each dNTP) and heated to 70° C. for 3 min after which the samples were rapidly cooled on ice. After cooling the samples on ice, 2 μl 10× Buffer RT, 1 μl MMLV Reverse Transcriptase (100 U/μl) and 0.25 μl RNase inhibitor (10 U/μl) was added to each sample, followed by incubation at 42° C. for 60 min, heat inactivation of the enzyme at 95° C. for 10 min, and then cooling the sample to 4° C.
(§10) The sample content of human HER3, EGFR and HER2 mRNA was quantified using the human HER3, EGFR and HER2 ABI Prism Pre-Developed TaqMan Assay Reagents (Applied Biosystems cat. no. Hs00951444_ml (HER3), Hs00193306_ml (EGFR) and Hs00170433_ml (HER2) according to the manufacturer's instructions.
(§11) Glyceraldehyde-3-phosphate dehydrogenase (GAPDH) mRNA quantity was used as an endogenous control for normalizing any variance in sample preparation. The sample content of human GAPDH mRNA was quantified using the human GAPDH ABI Prism Pre-Developed TaqMan Assay Reagent (Applied Biosystems cat. no. 4310884E) according to the manufacturer's instructions.
(§12) The cDNA from the first strand synthesis performed as described in Example 5 was diluted 2-20 times, and analyzed by real time quantitative PCR using Taqman 7500 FAST or 7900 FAST from Applied Biosystems. The primers and probe were mixed with 2× Taqman Fast Universal PCR master mix (2×) (Applied Biosystems Cat. #4364103) and added to 4 μl cDNA to a final volume of 10 μl. Each sample was analysed in duplicate. Assaying 2-fold dilutions of a cDNA that had been prepared on material purified from a cell line expressing the RNA of interest generated standard curves for the assays. Sterile H2O was used instead of cDNA for the no-template control. PCR program: 95° C. for 30 seconds, followed by 40 cycles of 95° C., 3 seconds, 60° C., 20-30 seconds. Relative quantities of target mRNA sequence were determined from the calculated Threshold cycle using the Applied Biosystems Fast System SDS Software Version 1.3.1.21. or SDS Software Version 2.3.
(§13) Oligonucleotides presented in Table 4 were evaluated for their potential to down-regulate HER3, EGFR and HER2 mRNA at concentrations of 1, 5 and 25 nM in 15PC3 cells (or HUH-7 as indicated by *) (see FIGS. 2, 3, 4 and 5). SEQ ID NOs: 235 and 236 were used as scrambled controls.
(§14) The data in Table 4 are presented as percentage down-regulation of mRNA relative to mock transfected cells at 25 nM. Lower-case letters represent DNA monomers, bold, upper-case letters represent β-D-oxy-LNA monomers. All cytosines in LNA monomers are 5-methylcytosines. Subscript “s” represents a phosphorothioate linkage.

human HER3 mRNA [3] = assay: Down-regulation of HER3 mRNA in transfected 15PC3 cells, real-time PCR; format: cell-based; conditions: 25 nM
Procedure: as §6, §7, §8, §9, §10, §11, §12, §13, §14

human HER2 mRNA = assay: Down-regulation of HER2 mRNA in transfected 15PC3 cells, real-time PCR; format: cell-based; conditions: 25 nM
Procedure: as §6, §7, §8, §9, §10, §11, §12, §13, §14

HER3 mRNA [4] = assay: HER3 mRNA knockdown in 15PC3 xenograft tumor, different dosing cycle; format: in vivo, human; conditions: 32.4 x 4 mg/kg i.v., every third day
Procedure: as §1, §4, §5

HER3 mRNA [5] = assay: HER3 mRNA knockdown in liver of xenograft-bearing nude mice, different dosing cycle; format: in vivo, mouse; conditions: 15PC3 xenograft mice, 32.4 x 4 mg/kg i.v., every third day
Procedure: as §1
as §4, with “Oligomers were administered by injection every third day in 2-4 doses.” left out
as §5

human HER3 mRNA [6] = assay: Down-regulation of HER3 mRNA in transfected HUH-7 cells, real-time PCR; format: cell-based; conditions: 25 nM, HUH-7 cells (indicated by *)
Procedure: HUH7: The human hepatocarcinoma cell line was cultured in DMEM (Sigma)+10% fetal bovine serum (FBS)+2 mM Glutamax I+gentamicin (25 μg/ml)+1× Non Essential Amino Acids.
The cells were treated with oligonucleotides using the cationic liposome formulation LipofectAMINE 2000 (Gibco) as transfection vehicle. Cells were seeded in 6-well cell culture plates (NUNC) and treated when 80-90% confluent. Oligomer concentrations ranged from 1 nM to 25 nM final concentration. Formulation of oligomer-lipid complexes was carried out essentially as described by the manufacturer using serum-free OptiMEM (Gibco) and a final lipid concentration of 5 μg/mL LipofectAMINE 2000. […]
as §10
as §11, with “instructions. […]” for “instructions.”

`COc1cc2ncnc(Nc3ccc(F)c(Cl)c3)c2cc1OCCCN1CCOCC1` [gefitinib] was tested, and the “cell proliferation of HCC827R cells under gefitinib” value [1] was “resistant to gefitinib even at the highest concentration tested”.

“ASGSAScSaStScSaScStScStSgSGSTSG (antisense lA*lG*lA*dC*dA*dT*dC*dA*dC*dT*dC*dT*dG*lG*lT*lG) [SEQ ID NO: 172, β-D-oxy-LNA/DNA phosphorothioate gapmer antisense oligonucleotide targeting HER3]” was tested, and the “HER3 mRNA Liver” value (Mouse HER3 mRNA; 9.7 mg/kg) was 12.2 ± 5.9 % of Sal ctrl, the “HER3 mRNA Liver” value (Mouse HER3 mRNA; 32.4 mg/kg) was 7.4 ± 5.2 % of Sal ctrl and the “HER3 mRNA Tumor” value (human HER3 mRNA [2]) was 78.1 ± 15.3%. The “Tumor Hif1A mRNA relative to saline treated controls” value (HIF-1 alpha mRNA) was 100.3 ± 7.5%, the “EGFR: percentage down-regulation of mRNA relative to mock transfected cells” value (human EGFR mRNA) was 86.2% and the “HER3: percentage down-regulation of mRNA relative to mock transfected cells” value (human HER3 mRNA [3]) was 84.2%. For the same compound, the “HER2: percentage down-regulation of mRNA relative to mock transfected cells” value (human HER2 mRNA) was 61%, the “Tumor HER3 mRNA relative to saline treated controls” value (HER3 mRNA [4]) was 107.3 ± 17% and the “Liver HER3 mRNA relative to saline treated controls” value (HER3 mRNA [5]) was 44.3 ± 10.6%.

With “CSASTScSaScStScStSgSgStSgSTSGST (l[5mC]*lA*lT*dC*dA*dC*dT*dC*dT*dG*dG*dT*dG*lT*lG*lT; antisense) [SEQ ID NO: 195]” the “HER3: percentage down-regulation of mRNA relative to mock transfected cells” value (human HER3 mRNA [6]) was 64.4%*.
